The target in this test is T1, human P2X4 (Homo sapiens, UniProt Q99571).
T1 sequence (Q99571 1-388): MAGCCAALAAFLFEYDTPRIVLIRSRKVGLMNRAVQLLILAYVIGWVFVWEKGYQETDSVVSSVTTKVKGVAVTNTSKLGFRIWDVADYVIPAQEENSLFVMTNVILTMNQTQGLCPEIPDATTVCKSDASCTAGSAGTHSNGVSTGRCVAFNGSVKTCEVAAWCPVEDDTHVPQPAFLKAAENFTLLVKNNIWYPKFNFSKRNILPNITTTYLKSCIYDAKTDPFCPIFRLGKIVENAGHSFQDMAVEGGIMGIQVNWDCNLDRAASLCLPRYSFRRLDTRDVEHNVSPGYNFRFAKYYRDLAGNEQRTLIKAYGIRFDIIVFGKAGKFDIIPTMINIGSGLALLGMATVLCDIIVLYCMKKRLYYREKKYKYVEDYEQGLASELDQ
Kind of test: Human P2X4 HEK Cell FLIPR Assay. In kind it is cell-based. As to conditions: agonist Bz-ATP at EC80; for Emax: HEK293, HEK293 cells, percentage of maximal inhibition, read-out: Human P2X4 HEK Cells (FLIPR Assay) avg Efficacy [%]; for IC50: HEK293 cells, individual values listed where some fall outside detection range. How it is done: HEK293 cells stably expressing human P2X4 were plated in poly-D-lysine-coated 384-well plates at a seeding density of 30000 cells/well and incubated overnight. P2X4 function was assessed by measuring intracellular calcium changes using the calcium-chelating dye Fluo8-AM (Molecular Devices) on a fluorescent imaging plate reader (FLEX/FLIPR station; Molecular Devices). On the day of the assay, the medium was removed and the cells were incubated for 30 min at 37° C. and 5% CO2 in 30 μL of dye buffer (Hank's balanced salt solution, 10 mM HEPES, 1.8 mM CaCl2, 1 mM MgCl2, 2 mM probenecid, 5 mM D-glucose monohydrate, 5 μM Fluo8-AM, pH=7.4). Compounds diluted in probenecid buffer (Hank's balanced salt solution, 10 mM HEPES, 1.8 mM CaCl2, 1 mM MgCl2, 2 mM probenecid, 5 mM D-glucose monohydrate, pH=7.4) were added in a volume of 10 μL and allowed to incubate for 30 min at room temperature. The final assay DMSO concentration was 0.5%. The agonist, Bz-ATP (Tocris), was added in a volume of 10 μL at a concentration representing the EC80 value. The EC80 value of Bz-ATP was determined each assay day prior to compound profiling. The fluorescence was measured for an interval of 120 sec at 2 sec intervals. The excitation and emission wavelengths used to monitor fluorescence were 470-495 nm and 515-575 nm, respectively. The data was analyzed based on the increase in peak relative fluorescence units (RFU) compared to the basal fluorescence and the data was normalized to the agonist control. The compounds were tested in triplicates per plate and mean values were plotted in Excel XLFit to determine IC50 values, percentage of maximal inhibition and the Hill coefficients.

We go through 26 compounds from patent US11524938B2, “Aromatic sulfonamide derivatives” (Bayer Pharma Aktiengesellschaft, priority 2016, dated 2022).

For the compound `CC(C)(C)c1cn(-c2ccc(NC(=O)Cc3ccccc3Cl)cc2S(N)(=O)=O)cn1` [Example 40, N-[4-(4-tert-Butyl-1H-imidazol-1-yl)-3-sulfamoylphenyl]-2-(2-chlorophenyl)acetamide], the Emax is 90% and the IC50 was 1240 nM.

In the case of `N#Cc1ncn(-c2ccc(NC(=O)Cc3ccccc3Cl)cc2S(N)(=O)=O)n1` [Example 41, 2-(2-Chlorophenyl)-N-[4-(3-cyano-1H-1,2,4-triazol-1-yl)-3-sulfamoylphenyl]acetamide], the Emax was found to be 70% and the IC50 amounted to 357 nM.

On to `NS(=O)(=O)c1cc(NC(=O)Cc2ccccc2Cl)ccc1-n1cnc(Br)c1` [Example 42, N-[4-(4-Bromo-1H-imidazol-1-yl)-3-sulfamoylphenyl]-2-(2-chlorophenyl)acetamide], for which the Emax stood at 71% and the IC50 worked out at 24 nM.

In the case of `NS(=O)(=O)c1cc(NC(=O)Cc2ccccc2Cl)ccc1-n1cnc2cccnc21` [Example 43, 2-(2-Chlorophenyl)-N-[4-(3H-imidazo[4,5-b]pyridin-3-yl)-3-sulfamoylphenyl]-acetamide], the Emax was determined as 87% and the IC50 worked out at 210 nM.

As to `NS(=O)(=O)c1cc(NC(=O)Cc2ccccc2Cl)ccc1-n1cnc2ncccc21` [Example 44, 2-(2-Chlorophenyl)-N-[4-(1H-imidazo[4,5-b]pyridin-1-yl)-3-sulfamoylphenyl]-acetamide], the Emax amounted to 97% and the IC50 came to 378 nM.

Take `NS(=O)(=O)c1cc(NC(=O)Cc2ccccc2Cl)ccc1-n1cnc2cnccc21` [Example 45, 2-(2-Chlorophenyl)-N-[4-(1H-imidazo[4,5-c]pyridin-1-yl)-3-sulfamoylphenyl]-acetamide]: the Emax came to 74% and the IC50 was determined as 75 nM.

Take `NS(=O)(=O)c1cc(NC(=O)Cc2ccccc2Cl)ccc1-n1cnc2ccncc21` [Example 46, 2-(2-Chlorophenyl)-N-[4-(3H-imidazo[4,5-c]pyridin-3-yl)-3-sulfamoylphenyl]-acetamide]: the Emax came out at 87% and the IC50 was 916 nM.

On to `Cc1cn(-c2ccc(NC(=O)Cc3ccccc3Cl)cc2S(N)(=O)=O)c(C)n1` [Example 47, 2-(2-Chlorophenyl)-N-[4-(2,4-dimethyl-1H-imidazol-1-yl)-3-sulfamoylphenyl]-acetamide], for which the Emax amounted to 66% and the IC50 worked out at 472 nM.

As to `NS(=O)(=O)c1cc(NC(=O)Cc2ccccc2F)ccc1-n1cc(F)cn1` [Example 48, 2-(2-Fluorophenyl)-N-[4-(4-fluoro-1H-pyrazol-1-yl)-3-sulfamoylphenyl]acetamide], the Emax was determined as 82% and the IC50 worked out at 297 nM.

Regarding `NS(=O)(=O)c1cc(NC(=O)Cc2ccccc2C(F)F)ccc1-n1cc(Cl)cn1` [Example 49, N-[4-(4-Chloro-1H-pyrazol-1-yl)-3-sulfamoylphenyl]-2-[2-(difluoromethyl)-phenyl]acetamide], the Emax came out at 94% and the IC50 was found to be 135 nM.

As to `NS(=O)(=O)c1cc(NC(=O)Cc2ccccc2F)ccc1-n1cc(Cl)cn1` [Example 50, N-[4-(4-Chloro-1H-pyrazol-1-yl)-3-sulfamoylphenyl]-2-(2-fluorophenyl)acetamide], the Emax is 88% and the IC50 amounted to 149 nM.

As to `NS(=O)(=O)c1cc(NC(=O)Cc2ccccc2C(F)F)ccc1-n1cc(F)cn1` [Example 51, 2-[2-(Difluoromethyl)phenyl]-N-[4-(4-fluoro-1H-pyrazol-1-yl)-3-sulfamoyl-phenyl]acetamide], the Emax was found to be 94% and the IC50 worked out at 134 nM.

As to `N#Cc1cnn(-c2ccc(NC(=O)Cc3ccccc3F)cc2S(N)(=O)=O)c1` [Example 52, N-[4-(4-Cyano-1H-pyrazol-1-yl)-3-sulfamoylphenyl]-2-(2-fluorophenyl)acetamide], the Emax was 82% and the IC50 came out at 154 nM.

Turning to `COc1ccccc1CC(=O)Nc1ccc(-n2cnc(C(F)(F)F)n2)c(S(N)(=O)=O)c1` [Example 53, 2-(2-Methoxyphenyl)-N-{3-sulfamoyl-4-[3-(trifluoromethyl)-1H-1,2,4-triazol-1-yl]-phenyl}acetamide], the Emax is 52% and the IC50 came out at 169 nM.

Turning to `NS(=O)(=O)c1cc(NC(=O)Cc2ccccc2F)ccc1-n1cnc(C(F)(F)F)n1` [Example 54, 2-(2-Fluorophenyl)-N-{3-sulfamoyl-4-[3-(trifluoromethyl)-1H-1,2,4-triazol-1-yl]phenyl}acetamide], the Emax stood at 75% and the IC50 worked out at 557 nM.

Consider `NS(=O)(=O)c1cc(NC(=O)Cc2cccc(F)c2)ccc1-n1cnc(C(F)(F)F)n1` [Example 55, 2-(3-Fluorophenyl)-N-{3-sulfamoyl-4-[3-(trifluoromethyl)-1H-1,2,4-triazol-1-yl]-phenyl}acetamide], for which the Emax stood at 74% and the IC50 amounted to 1400 nM.

Regarding `NS(=O)(=O)c1cc(NC(=O)Cc2ccc(F)cc2Cl)ccc1-n1cnc(C(F)(F)F)n1` [Example 56, 2-(2-Chloro-4-fluorophenyl)-N-{3-sulfamoyl-4-[3-(trifluoromethyl)-1H-1,2,4-triazol-1-yl]phenyl}acetamide], the Emax was 70% and the IC50 turned out to be 121 nM.

With `NS(=O)(=O)c1cc(NC(=O)Cc2ccccc2OC(F)F)ccc1-n1cnc(C(F)(F)F)n1` [Example 57, 2-[2-(Difluoromethoxy)phenyl]-N-{3-sulfamoyl-4-[3-(trifluoromethyl)-1H-1,2,4-triazol-1-yl]phenyl}acetamide], the Emax came out at 71% and the IC50 was 141 nM.

Turning to `NS(=O)(=O)c1cc(NC(=O)Cc2cc(F)ccc2Cl)ccc1-n1cnc(C(F)(F)F)n1` [Example 58, 2-(2-Chloro-5-fluorophenyl)-N-{3-sulfamoyl-4-[3-(trifluoromethyl)-1H-1,2,4-triazol-1-yl]phenyl}acetamide], the Emax was determined as 54% and the IC50 came to 73 nM.

In the case of `NS(=O)(=O)c1cc(NC(=O)Cc2ccncc2Cl)ccc1-n1cnc(C(F)(F)F)n1` [Example 59, 2-(3-Chloropyridin-4-yl)-N-{3-sulfamoyl-4-[3-(trifluoromethyl)-1H-1,2,4-triazol-1-yl]phenyl}acetamide], the Emax came to 73% and the 50% inhibitory concentration (IC50) stood at 4650 nM.

As for `NS(=O)(=O)c1cc(NC(=O)Cc2ccc(C(F)F)cc2)ccc1-n1cnc(C(F)(F)F)n1` [Example 60, 2-[4-(Difluoromethyl)phenyl]-N-{3-sulfamoyl-4-[3-(trifluoromethyl)-1H-1,2,4-triazol-1-yl]phenyl}acetamide], the Emax came out at 80% and the IC50 came to 917 nM.

As to `NS(=O)(=O)c1cc(NC(=O)C(F)(F)c2ccccc2Cl)ccc1-n1cnc(C(F)(F)F)n1` [Example 61, 2-(2-Chlorophenyl)-2,2-difluoro-N-{3-sulfamoyl-4-[3-(trifluoromethyl)-1H-1,2,4-triazol-1-yl]phenyl}acetamide], the Emax was 79% and the IC50 was 400 nM.

For the compound `NS(=O)(=O)c1cc(NC(=O)C(F)(F)c2ccccc2Cl)ccc1-n1cc(Br)cn1` [Example 62, N-[4-(4-Bromo-1H-pyrazol-1-yl)-3-sulfamoylphenyl]-2-(2-chlorophenyl)-2,2-difluoroacetamide], the Emax was found to be 94% and the IC50 amounted to 249 nM.

For the compound `NS(=O)(=O)c1cc(NC(=O)Cc2ccccc2F)ccc1-n1cc(Br)cn1` [Example 63, N-[4-(4-Bromo-1H-pyrazol-1-yl)-3-sulfamoylphenyl]-2-(2-fluorophenyl)acetamide], the Emax is 87% and the IC50 turned out to be 130 nM.

`NS(=O)(=O)c1cc(NC(=O)Cc2ccccc2C(F)(F)F)ccc1-n1cc(Br)cn1` [Example 64, N-[4-(4-Bromo-1H-pyrazol-1-yl)-3-sulfamoylphenyl]-2-[2-(trifluoromethyl)-phenyl]acetamide]: the Emax was found to be 83% and the IC50 is 104 nM.

Regarding `NS(=O)(=O)c1cc(NC(=O)Cc2cccc(F)c2)ccc1-n1cc(Br)cn1` [Example 65, N-[4-(4-Bromo-1H-pyrazol-1-yl)-3-sulfamoylphenyl]-2-(3-fluorophenyl)acetamide], the Emax worked out at 62% and the IC50 came out at 355 nM.
